Reference: ChEMBL document CHEMBL1152943, “Synthesis and in vitro anti-hepatitis B virus activity of 6H-[1]benzothiopyrano[4,3-b]quinolin-9-ols” (Bioorg Med Chem, 2009)

Key:
[1] = test system: Hepatitis B virus; experiment: Antiviral activity against HBV infected in human HepG2(2.2.15) cells assessed as inhibition of HBV surface antigen at < TC50; assay type: functional, organism-based
[2] = Cytotoxicity against human HepG2(2.2.15) cells after 24 hrs by neutral red dye staining; assay type: functional; conditions: HepG2 2.2.15, 24 h
[3] = test system: Hepatitis B virus; experiment: Antiviral activity against HBV infected in human HepG2(2.2.15) cells assessed as inhibition of HBV DNA replication; assay type: functional, organism-based
[4] = Selectivity index, ratio of TC50 for human HepG2(2.2.15) cells to IC50 for inhibition of HBV DNA replication
[5] = Selectivity index, ratio of TC50 for human HepG2(2.2.15) cells to IC50 for inhibition of HBV surface antigen
[6] = test system: Hepatitis B virus; experiment: Antiviral activity against HBV infected in human HepG2(2.2.15) cells assessed as inhibition of HBV surface antigen; assay type: functional, organism-based
[7] = Hepatitis B virus, HepG2 2.2.15, read-out: IC50

SMILES	IC50 [1]	CC50 [2]	IC50 ([3]; hepg2 2.2.15)	Selectivity Index [4]	IC50 [3, 7]	Selectivity Index [5]	IC50 [6]
COc1cc2nc3c(cc2c(CN2CCN(C)CC2)c1O)CSc1ccccc1-3	Not Active	25.2 µM	Not Active	–	–	–	–
CCN(CC)Cc1c(O)c(OC)cc2nc3c(cc12)CSc1ccc(C)cc1-3	Not Active	12 µM	–	6	2 µM	–	–
COc1cc2nc3c(cc2c(CN2CCOCC2)c1O)CSc1cc(F)ccc1-3	Not Active	28.8 µM	Not Active	–	–	–	–
CCN(CC)Cc1c(O)c(OC)cc2nc3c(cc12)CSc1cc(F)ccc1-3	Not Active	20.7 µM	–	8.7	2.4 µM	–	–
COc1cc2nc3c(cc2c(CN2CCCC2)c1O)CSc1cc(F)ccc1-3	Not Active	566 µM	–	3.3	173 µM	–	–
COc1cc2nc3c(cc2c(CN(C)C)c1O)CSc1ccccc1-3	–	36.5 µM	Not Active	–	–	3.9	9.3 µM
COc1cc2nc3c(cc2c(CN2CCCC2)c1O)CSc1ccc(F)cc1-3	Not Active	435 µM	–	9.1	47.7 µM	–	–
COc1cc2nc3c(cc2c(CN2CCOCC2)c1O)CSc1ccccc1-3	Not Active	42.1 µM	Not Active	–	–	–	–
COc1cc2nc3c(cc2c(CN2CCOCC2)c1O)CSc1c(C)cc(C)cc1-3	Not Active	50.6 µM	Not Active	–	–	–	–
COc1cc2nc3c(cc2c(CN2CCN(C)CC2)c1O)CSc1ccc(C)cc1-3	Not Active	527 µM	–	4.9	107 µM	–	–
COc1cc2nc3c(cc2c(CN2CCN(C)CC2)c1O)CSc1cc(F)ccc1-3	Not Active	13.5 µM	Not Active	–	–	–	–
COc1cc2nc3c(cc2c(CN(C)C)c1O)CSc1ccc(C)cc1-3	–	67.3 µM	Not Active	–	–	3	22.1 µM
COc1cc2nc3c(cc2c(CN2CCOCC2)c1O)CSc1cc(C)ccc1-3	Not Active	262 µM	Not Active	–	–	–	–
COc1cc2nc3c(cc2c(CN2CCCC2)c1O)CSc1ccc(C)cc1-3	Not Active	146 µM	–	2.6	56.3 µM	–	–
CCN(CC)Cc1c(O)c(OC)cc2nc3c(cc12)CSc1ccccc1-3	Not Active	39 µM	Not Active	–	–	–	–
COc1cc2nc3c(cc2c(CN2CCCCC2)c1O)CSc1c(C)cc(C)cc1-3	Not Active	21.9 µM	–	5.3	4.2 µM	–	–
COc1cc2nc3c(cc2c(CN2CCOCC2)c1O)CSc1ccc(C)cc1-3	Not Active	181 µM	–	12.4	14.7 µM	–	–
COc1cc2nc3c(cc2c(CN(C)C)c1O)CSc1c(C)cc(C)cc1-3	–	32.4 µM	Not Active	–	–	2.4	13.8 µM
Nc1ccn([C@@H]2CS[C@H](CO)O2)c(=O)n1 [LAMIVUDINE]	Not Active	2180 µM	–	9.1	240 µM	–	–
